This note sets out measurements from BindingDB's records for doi:10.1021/jm00367a006 (1984).

SMILES strings stand for the structures. pEC50: −log10 of the molar value.

The assay deals with dopamine D1 receptor (Rattus norvegicus). Nature of the assay: Effective concentration that gives maximal stimulation of cyclic AMP production over the concentration range tested.

Usually pEC50 stands for the EC50 on a negative log10 scale, so that one unit is a factor of ten. Take `CN1Cc2c(N)cccc2C(c2ccc(O)c(O)c2)C1` (configuration not stated) [4-(8-Amino-2-methyl-1,2,3,4-tetrahydro-isoquinolin-4-yl)-benzene-1,2-diol]: the negative logarithm of the EC50 (pEC50) is 5.54.

Compound `CN1Cc2c(N)cccc2[C@H](c2ccc(O)c(O)c2)C1` gave a pEC50 of 5.73.
